Patent US12077503B2, “Substituted cyclic amides and their use as herbicides” (FMC CORPORATION, priority 2015, dated 2024)

Tests used:
Assay type in all cases: in vivo
[1] = tested on: wheat (Triticum aestivum); test: Test A postemergence; conditions: Triticum aestivum, post-emergence, 240 h, postemergence
How it was run: (§1)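 Seeds sprayed preemergence with a directed soil spray, or plants at 2 to 10 cm height and one- to two-leaf stage sprayed postemergence, with test chemicals in a non-phytotoxic solvent mixture containing surfactant, in loam soil–sand blend. Injury rated visually against untreated controls after about 10 d in greenhouse, 0 (no effect) to 100 (complete control).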

Kochia (Kochia scoparia) [2] = test: Test A postemergence; conditions: Bassia scoparia, post-emergence, 240 h, postemergence
How it was run: as §1

[3] = tested on: barnyardgrass (Echinochloa crus-galli); test: Test A postemergence; conditions: Echinochloa crus-galli, post-emergence, 240 h, postemergence
How it was run: as §1

[4] = tested on: ragweed (common ragweed, Ambrosia elatior); test: Test A postemergence; conditions: Ambrosia artemisiifolia, post-emergence, 240 h, postemergence
How it was run: as §1

[5] = tested on: Galium (catchweed bedstraw, Galium aparine); test: Test A postemergence; conditions: Galium, post-emergence, 240 h, postemergence
How it was run: as §1

corn (Zea mays) = test: Test A postemergence; conditions: Zea mays, post-emergence, 240 h, postemergence
How it was run: as §1

[6] = tested on: giant foxtail (Setaria faberii); test: Test A postemergence; conditions: Setaria faberi, post-emergence, 240 h, postemergence
How it was run: as §1

[7] = tested on: ryegrass, Italian (Italian ryegrass, Lolium multiflorum); test: Test A postemergence; conditions: Lolium multiflorum, post-emergence, 240 h, postemergence
How it was run: as §1

[8] = tested on: pigweed (Amaranthus retroflexus); test: Test A postemergence; conditions: Amaranthus retroflexus, post-emergence, 240 h, postemergence
How it was run: as §1

Kochia (Kochia scoparia) [9] = test: Test A preemergence; conditions: Bassia scoparia, pre-emergence, 240 h, preemergence, 0 to 100 scale where 0 is no effect and 100 is complete control, read-out: Kochia plant response rating
How it was run: as §1

[10] = tested on: barnyardgrass (Echinochloa crus-galli); test: Test A preemergence; conditions: Echinochloa crus-galli, pre-emergence, 240 h, preemergence, 0 to 100 scale where 0 is no effect and 100 is complete control, read-out: Barnyardgrass plant response rating
How it was run: as §1

[11] = tested on: ragweed (common ragweed, Ambrosia elatior); test: Test A preemergence; conditions: Ambrosia artemisiifolia, pre-emergence, 240 h, preemergence, 0 to 100 scale where 0 is no effect and 100 is complete control, read-out: Ragweed plant response rating
How it was run: as §1

[12] = tested on: giant foxtail (Setaria faberii); test: Test A preemergence; conditions: Setaria faberi, pre-emergence, 240 h, preemergence, 0 to 100 scale where 0 is no effect and 100 is complete control, read-out: Foxtail, Giant plant response rating
How it was run: as §1

[13] = tested on: ryegrass, Italian (Italian ryegrass, Lolium multiflorum); test: Test A preemergence; conditions: Lolium multiflorum, pre-emergence, 240 h, preemergence, 0 to 100 scale where 0 is no effect and 100 is complete control, read-out: Ryegrass, Italian plant response rating
How it was run: as §1

[14] = tested on: pigweed (Amaranthus retroflexus); test: Test A preemergence; conditions: Amaranthus retroflexus, pre-emergence, 240 h, preemergence, 0 to 100 scale where 0 is no effect and 100 is complete control, read-out: Pigweed plant response rating

Compound: CCc1ccc([C@H]2CNC(=O)[C@@H]2C(=O)Nc2ccccc2SC)cc1 [Compound 1178]
- plant injury at 125 g/ha ([1]; 125 g ai/ha, visual injury vs untreated controls after approx. 10 d, 0 = no effect, 100 = complete control, read-out: Wheat plant response rating (0 to 100 scale)): 0%
- plant injury at 500 g/ha ([1]; 500 g ai/ha, 0 to 100 scale, 0 is no effect, 100 is complete control, read-out: Wheat plant response rating): 0%
- pest or weed control at 125 g/ha (Kochia (Kochia scoparia) [2]; 125 g ai/ha, visual injury vs untreated controls after approx. 10 d, 0 = no effect, 100 = complete control, read-out: Kochia plant response rating (0 to 100 scale)): 20%
- pest or weed control at 500 g/ha (Kochia (Kochia scoparia) [2]; 500 g ai/ha, 0 to 100 scale, 0 is no effect, 100 is complete control, read-out: Kochia plant response rating): 40%
- pest or weed control at 125 g/ha ([3]; 125 g ai/ha, visual injury vs untreated controls after approx. 10 d, 0 = no effect, 100 = complete control, read-out: Barnyardgrass plant response rating (0 to 100 scale)): 0%
- pest or weed control at 500 g/ha ([3]; 500 g ai/ha, 0 to 100 scale, 0 is no effect, 100 is complete control, read-out: Barnyardgrass plant response rating): 30%
- pest or weed control at 125 g/ha ([4]; 125 g ai/ha, visual injury vs untreated controls after approx. 10 d, 0 = no effect, 100 = complete control, read-out: Ragweed plant response rating (0 to 100 scale)): 0%
- pest or weed control at 500 g/ha ([4]; 500 g ai/ha, 0 to 100 scale, 0 is no effect, 100 is complete control, read-out: Ragweed plant response rating): 20%
- pest or weed control at 125 g/ha ([5]; 125 g ai/ha, visual injury vs untreated controls after approx. 10 d, 0 = no effect, 100 = complete control, read-out: Galium plant response rating (0 to 100 scale)): 30%
- pest or weed control at 500 g/ha ([5]; 500 g ai/ha, 0 to 100 scale, 0 is no effect, 100 is complete control, read-out: Galium plant response rating): 30%
- plant injury at 125 g/ha (corn (Zea mays); 125 g ai/ha, visual injury vs untreated controls after approx. 10 d, 0 = no effect, 100 = complete control, read-out: Corn plant response rating (0 to 100 scale)): 0%
- plant injury at 500 g/ha (corn (Zea mays); 500 g ai/ha, 0 to 100 scale, 0 is no effect, 100 is complete control, read-out: Corn plant response rating): 0%
- pest or weed control at 125 g/ha ([6]; 125 g ai/ha, visual injury vs untreated controls after approx. 10 d, 0 = no effect, 100 = complete control, read-out: Foxtail, Giant plant response rating (0 to 100 scale)): 0%
- pest or weed control at 500 g/ha ([6]; 500 g ai/ha, 0 to 100 scale, 0 is no effect, 100 is complete control, read-out: Foxtail, Giant plant response rating): 30%
- pest or weed control at 125 g/ha ([7]; 125 g ai/ha, visual injury vs untreated controls after approx. 10 d, 0 = no effect, 100 = complete control, read-out: Ryegrass, Italian plant response rating (0 to 100 scale)): 0%
- pest or weed control at 500 g/ha ([7]; 500 g ai/ha, 0 to 100 scale, 0 is no effect, 100 is complete control, read-out: Ryegrass, Italian plant response rating): 0%
- pest or weed control at 125 g/ha ([8]; 125 g ai/ha, visual injury vs untreated controls after approx. 10 d, 0 = no effect, 100 = complete control, read-out: Pigweed plant response rating (0 to 100 scale)): 0%
- pest or weed control at 500 g/ha ([8]; 500 g ai/ha, 0 to 100 scale, 0 is no effect, 100 is complete control, read-out: Pigweed plant response rating): 0%
- pest or weed control at 125 g/ha (Kochia (Kochia scoparia) [9]; 125 g ai/ha, approx. 10 d): 40%
- pest or weed control at 500 g/ha (Kochia (Kochia scoparia) [9]; 500 g ai/ha): 70%
- pest or weed control at 125 g/ha ([10]; 125 g ai/ha, approx. 10 d): 20%
- pest or weed control at 500 g/ha ([10]; 500 g ai/ha): 50%
- pest or weed control at 125 g/ha ([11]; 125 g ai/ha, approx. 10 d): 0%
- pest or weed control at 500 g/ha ([11]; 500 g ai/ha): 50%
- pest or weed control at 125 g/ha ([12]; 125 g ai/ha, approx. 10 d): 20%
- pest or weed control at 500 g/ha ([12]; 500 g ai/ha): 70%
- pest or weed control at 125 g/ha ([13]; 125 g ai/ha, approx. 10 d): 0%
- pest or weed control at 500 g/ha ([13]; 500 g ai/ha): 20%
- pest or weed control at 125 g/ha ([14]; 125 g ai/ha, approx. 10 d): 20%
- pest or weed control at 500 g/ha ([14]; 500 g ai/ha): 50%
